Assay results as given in patent US12410160B2 (Gilead Sciences, Inc., priority 2021, dated 2025).

How the values were obtained:
human KHK-C = human KHK-C (Homo sapiens (Human), UniProt P50053); test: KHK Biochemical Assay (IC50), ADP-Glo, KHK-C; conditions: ADP-Glo; average of at least two separate assays
Outline: (§1)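 His-tagged enzyme expressed in BL21 (DE3), Ni-NTA purified. Compounds, serially diluted 1:3 in DMSO, pre-incubated 30 min with enzyme in 50 mM Hepes pH 7.4, 140 mM KCl, 5 mM MgCl2, 0.01% Triton-X, then ATP and fructose added; 4 h at room temperature. ADP formation read by ADP-Glo luminescence.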

human KHK-A = human KHK-A (Homo sapiens (Human), UniProt P50053); test: KHK Biochemical Assay (IC50), ADP-Glo, KHK-A; conditions: ADP-Glo; average of at least two separate assays
human KHK-A, sequence (P50053 other isoform, or with tags, fused parts or gaps): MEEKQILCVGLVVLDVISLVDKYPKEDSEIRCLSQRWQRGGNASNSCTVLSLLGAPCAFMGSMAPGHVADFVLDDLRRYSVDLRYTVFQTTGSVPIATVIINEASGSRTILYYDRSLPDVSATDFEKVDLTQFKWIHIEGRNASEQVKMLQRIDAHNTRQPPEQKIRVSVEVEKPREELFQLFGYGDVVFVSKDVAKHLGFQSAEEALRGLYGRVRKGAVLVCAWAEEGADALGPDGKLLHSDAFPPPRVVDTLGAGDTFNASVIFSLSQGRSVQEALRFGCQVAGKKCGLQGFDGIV
Outline: as §1

[1] = target: KHK-C expressed in NRK-52E cells (Homo sapiens (Human), UniProt P50053); test: KHK-C Cell-based Assay (EC50), NRK CTG, fructose-mediated ATP-depletion
KHK-C expressed in NRK-52E cells, sequence (P50053 whole entry): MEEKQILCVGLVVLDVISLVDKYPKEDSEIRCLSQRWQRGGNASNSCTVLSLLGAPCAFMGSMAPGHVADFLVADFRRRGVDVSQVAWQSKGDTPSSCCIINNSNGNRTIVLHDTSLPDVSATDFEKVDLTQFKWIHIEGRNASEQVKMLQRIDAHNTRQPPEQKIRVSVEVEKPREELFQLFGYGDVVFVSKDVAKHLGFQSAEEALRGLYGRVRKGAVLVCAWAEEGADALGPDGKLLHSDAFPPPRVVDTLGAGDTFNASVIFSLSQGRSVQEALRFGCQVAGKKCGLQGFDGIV

human KHK-C, sequence (P50053 whole entry): as above

Structure (SMILES) | IC50 (human KHK-C) | IC50 (human KHK-A) | EC50 [1]
C[C@H]1[C@H](F)CN1c1nc2c(c(-c3ccc(CN)cc3)n1)CCC2 [Example 201, [4-[2-[(2S,3R)-3-fluoro-2-methyl-azetidin-1-yl]-6,7-dihydro-5H-cyclopenta[d]pyrimidin-4-yl]phenyl]methanamine] | 1.7 nM | 2.9 nM | 130 nM
C[C@H]1[C@H](O)CN1c1nc2c(c(-c3ccc(CN)cc3)n1)CCC2 [Example 202, (2S,3R)-1-[4-[4-(aminomethyl)phenyl]-6,7-dihydro-5H-cyclopenta[d]pyrimidin-2-yl]-2-methyl-azetidin-3-ol] | 7.7 nM | 9.8 nM | 111 nM
C[C@H]1[C@H](O)CN1c1nc2c(c(-c3ccc4c(c3)C(=O)N(C)C4)n1)CCC2 [Example 204] | 37.2 nM | 118 nM | 109 nM
C[C@H]1C[C@H](C)N1c1nc2c(c(-c3cccc(S(N)(=O)=O)c3)n1)CCC2 [Example 208, 3-[2-[(28,48)-2,4-dimethylazetidin-1-yl]-6,7-dihydro-5H-cyclopenta[d]pyrimidin-4-yl]benzenesulfonamide] | 46.6 nM | 36.7 nM | 36.4 nM
C[C@H]1[C@H](F)CN1c1nc2c(c(-c3cccc(S(N)(=O)=O)c3)n1)CCC2 [Example 210] | 19.7 nM | 17.6 nM | 38.2 nM
C[C@H]1CCN1c1nc(-c2ccccc2)c2c(ncn2C)n1 [Example 211, 7-methyl-2-[(2S)-2-methylazetidin-1-yl]-6-phenyl-purine] | 4760 nM | 7310 nM | > 50000 nM
C[C@H]1CCN1c1nc2c(c(-c3cccc(C(=O)NCC(N)=O)c3)n1)CCC2 [Example 216, N-(2-amino-2-oxo-ethyl)-3-[2-[(2S)-2-methylazetidin-1-yl]-6,7-dihydro-5H-cyclopenta[d]pyrimidin-4-yl]benzamide] | 38.4 nM | 37.8 nM | 390 nM
C[C@H]1CCN1c1nc2c(c(-c3cccc(C(=O)NCCS(N)(=O)=O)c3)n1)CCC2 [Example 219, 3-[2-[(2S)-2-methylazetidin-1-yl]-6,7-dihydro-5H-cyclopenta[d]pyrimidin-4-yl]-N-(2-sulfamoylethyl)benzamide] | 13.1 nM | 17.2 nM | 283 nM
C[C@H]1CCN1c1nc2c(c(-c3cccc(C(=O)NCCC(N)=O)c3)n1)CCC2 [Example 220, N-(3-amino-3-oxo-propyl)-3-[2-[(2S)-2-methylazetidin-1-yl]-6,7-dihydro-5H-cyclopenta[d]pyrimidin-4-yl]benzamide] | 57.3 nM | 58.6 nM | 190 nM
C[C@H]1[C@@H](F)CN1c1nc2c(c(-c3ccc(C(N)=O)cc3)n1)CCC2 [Example 226] | 17.2 nM | 25.5 nM | 26.9 nM
C[C@H]1CCN1c1nc2c(c(-c3cccc(CNC(=O)CCO)c3)n1)CCC2 [Example 227, 3-hydroxy-N-[[3-[2-[(2S)-2-methylazetidin-1-yl]-6,7-dihydro-5H-cyclopenta[d]pyrimidin-4-yl]phenyl]methyl]propanamide] | 70.3 nM | 75.6 nM | 265 nM
C[C@H]1CCN1c1nc2c(c(-c3ccc4c(c3)S(=O)(=O)CNC4=O)n1)CCC2 [Example 234, 7-[2-[(2S)-2-methylazetidin-1-yl]-6,7-dihydro-5H-cyclopenta[d]pyrimidin-4-yl]-1,1-dioxo-2,3-dihydro-1lambda6,3-benzothiazin-4-one] | 18.9 nM | 39.1 nM | 56.4 nM
CO[C@@H]1CN(c2nc3c(c(-c4ccc(C(N)=O)cc4)n2)CCC3)[C@H]1C [Example 235, 4-(2-((2S,3R)-3-methoxy-2-methylazetidin-1-yl)-6,7-dihydro-5H-cyclopenta[d]pyrimidin-4-yl)benzamide] | > 5000 nM | > 5000 nM | > 5000 nM
C[C@H]1CCN1c1nc2c(c(-c3ccc4c(c3)C(=O)NC4=O)n1)CCC2 [Example 240, 5-[2-[(2S)-2-methylazetidin-1-yl]-6,7-dihydro-5H-cyclopenta[d]pyrimidin-4-yl]isoindoline-1,3-dione] | 173 nM | 183 nM | 4980 nM

More lines, now with the values ahead:

IC50 (human KHK-C) | IC50 (human KHK-A) | EC50 [1] | Structure (SMILES)
28.2 nM | 23.2 nM | 55.8 nM | C[C@H]1CCN1c1nc2c(c(-c3ccc4c(c3)C(=O)NC4)n1)CCC2 [Example 207]
33.3 nM | 52.6 nM | 52.5 nM | C[C@H]1CCN1c1nc2c(c(-c3cnc(C(C)(C)O)s3)n1)CCC2 [Example 213, 2-[5-[2-[(2S)-2-methylazetidin-1-yl]-6,7-dihydro-5H-cyclopenta[d]pyrimidin-4-yl]thiazol-2-yl]propan-2-ol]
90.3 nM | 130 nM | > 5000 nM | C[C@H]1CCN1c1nc2c(c(-c3cccc(C(=O)NCCC(=O)O)c3)n1)CCC2 [Example 217, 3-[[3-[2-[(2S)-2-methylazetidin-1-yl]-6,7-dihydro-5H-cyclopenta[d]pyrimidin-4-yl]benzoyl]amino]propanoic acid]
17.2 nM | 17.8 nM | 94.4 nM | C[C@H]1CCN1c1nc2c(c(-c3cnc(CN)s3)n1)CCC2 [Example 221, (S)-(5-(2-(2-methylazetidin-1-yl)-6,7-dihydro-5H-cyclopenta[d]pyrimidin-4-yl)thiazol-2-yl)methanamine]
50.6 nM | 56.7 nM | 199 nM | C[C@H]1CCN1c1nc2c(c(-c3cccc(CNC(=O)CO)c3)n1)CCC2 [Example 231, 2-hydroxy-N-[[3-[2-[(2S)-2-methylazetidin-1-yl]-6,7-dihydro-5H-cyclopenta[d]pyrimidin-4-yl]phenyl]methyl]acetamide]
44.8 nM | 46.1 nM | 1630 nM | C[C@H]1CCN1c1nc2c(c(-c3ccc4ccc(C(=O)O)cc4c3)n1)CCC2 [Example 232, 7-[2-[(2S)-2-methylazetidin-1-yl]-6,7-dihydro-5H-cyclopenta[d]pyrimidin-4-yl]naphthalene-2-carboxylic acid]
67.8 nM | 149 nM | 102 nM | C[C@H]1CCN1c1nc2c(c(-c3cccc(CC(N)=O)c3)n1)CCC2 [Example 244, 2-[3-[2-[(2S)-2-methylazetidin-1-yl]-6,7-dihydro-5H-cyclopenta[d]pyrimidin-4-yl]phenyl]acetamide]
80.3 nM | 73.6 nM | 374 nM | C[C@H]1CCN1c1nc2c(c(-c3ccc(CC(N)=O)cc3)n1)CCC2 [Example 245, 2-[4-[2-[(2S)-2-methylazetidin-1-yl]-6,7-dihydro-5H-cyclopenta[d]pyrimidin-4-yl]phenyl]acetamide]
163 nM | 360 nM | 422 nM | C[C@H]1CCN1c1nc2c(c(-c3cccc(C(N)C(F)(F)F)c3)n1)CCC2 (stereo partly drawn) [Example 246, 2,2,2-trifluoro-1-[3-[2-[(2S)-2-methylazetidin-1-yl]-6,7-dihydro-5H-cyclopenta[d]pyrimidin-4-yl]phenyl]ethanamine]
49.6 nM | 50 nM | 107 nM | C[C@H]1CCN1c1nc2c(c(-c3ccc4[nH]c(=O)[nH]c4c3)n1)CCC2 [Example 247, 5-[2-[(2S)-2-methylazetidin-1-yl]-6,7-dihydro-5H-cyclopenta[d]pyrimidin-4-yl]-1,3-dihydrobenzimidazol-2-one]
